In patent US6831075B2, “Heterocyclic substituted pyrazolones” (Cephalon, Inc., priority 1999, dated 2004):

Target: T1, recombinant human baculovirus-expressed VEGFR1 cytoplasmic domain (Homo sapiens, UniProt P17948)
T1 construct: recombinant human baculovirus-expressed VEGFR1 cytoplasmic domain; host or cells: baculovirus expression system
T1 sequence (P17948 781-1338 limits assumed): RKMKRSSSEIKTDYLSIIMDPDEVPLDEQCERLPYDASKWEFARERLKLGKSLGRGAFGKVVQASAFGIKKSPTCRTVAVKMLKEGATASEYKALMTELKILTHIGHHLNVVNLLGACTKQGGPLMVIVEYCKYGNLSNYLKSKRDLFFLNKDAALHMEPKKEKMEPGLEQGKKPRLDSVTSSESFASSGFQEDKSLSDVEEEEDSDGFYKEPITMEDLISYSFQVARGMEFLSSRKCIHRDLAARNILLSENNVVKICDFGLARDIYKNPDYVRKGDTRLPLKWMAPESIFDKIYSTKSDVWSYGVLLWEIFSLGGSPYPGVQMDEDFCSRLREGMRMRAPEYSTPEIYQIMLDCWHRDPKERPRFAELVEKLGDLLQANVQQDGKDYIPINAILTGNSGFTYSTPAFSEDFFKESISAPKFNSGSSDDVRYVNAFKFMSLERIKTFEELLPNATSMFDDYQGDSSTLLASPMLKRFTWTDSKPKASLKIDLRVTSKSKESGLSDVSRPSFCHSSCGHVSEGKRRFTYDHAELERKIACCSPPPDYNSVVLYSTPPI
Experiment: VEGFR1 kinase inhibition assay (ELISA-based, time-resolved fluorescence)
Format: biochemical
Conditions: 1 uM compound; 30 μM ATP
Protocol: Inhibition of Vascular Endothelial Growth Factor Receptor-1 Kinase Activity
The VEGFR1 kinase activity assay utilizes an ELISA-based format in a 96-well FluoroNUNC Maxisorp plate with a time-resolved fluorescence readout. The plate was coated with 100 μl/well of substrate solution (recombinant human PLC-γ/GST) at a concentration of 40 μg/ml in Tris buffered saline (TBS). The VEGFR1 activity was assayed in 100-μl assay micture containing 50 mM HEPES (pH 7.4), 30 μM ATP, 10 mM MnCl2, 0.1% BSA, 2% DMSO, and 300 ng/ml prephosphorylated recombinant human baculovirus-expressed VEGFR1 cytoplasmic domain. Compounds were screened for inhibition of the VEGFR1 kinase activity at a concentration of 1 μM. The kinase reaction was allowed to proceed at 37° C. for 15 minutes. The detection antibody, europium-labeled anti-phosphotyrosine antibody (Wallac #CR04-100), was added at 1:5000 dilution in block buffer (3% BSA in TBST). After a 1-hour incubation at 37° C., 100 μl of enhancement solution (Wallac #1244-105) was added and the plate was gently agitated. After 5 min, the fluorescence of the resulting solution was measured using the BMG Fluostar (Model # 403).

Structure (SMILES)	VEGFR-1 kinase % inhibition @ 1 uM [%]
O=C1NN=C(c2ccco2)C1=Cc1c[nH]c2ccc(Cl)cc12 [Compound 49]	32
Cc1cccc2c(C=C3C(=O)NN=C3c3ccco3)c[nH]c12 [Compound 47]	40
Cc1nc[nH]c1C=C1C(=O)NN=C1c1ccco1 [Compound 53]	21
O=C1NN=C(c2cc3ccccc3o2)C1=Cc1c[nH]c2ccccc12 [Compound 58]	51
CC(C)Cn1cc(C=C2C(=O)NN=C2c2nccs2)c2ccccc21 [Compound 73]	12
Cc1[nH]c(C=C2C(=O)NN=C2c2ccoc2)c(Br)c1Br [Compound 8]	21
O=C1NN=C(c2ccoc2)C1=Cc1c[nH]c2cccc(OCc3ccccc3)c12 [Compound 18]	9
Cn1cc(C=C2C(=O)NN=C2c2cc3ccccc3o2)c2ccccc21 [Compound 59]	−2
O=C1NN=C(c2ccoc2)C1=Cc1cn(Cc2ccccc2)c2ccccc12 [Compound 68]	11
Cn1ccc(C2=NNC(=O)C2=Cc2c[nH]c3cccc(OCc4ccccc4)c23)c1 [Compound 31]	10
O=C1NN=C(c2ccoc2)C1=CC=C(c1ccccc1)c1ccccc1 [Compound 4]	20
Cc1cc(C)c(C=C2C(=O)NN=C2C2c3ccccc3Oc3ccccc32)[nH]1 [Compound 2]	9

Same assay, conditions: 1 uM compound; 30 μM ATP; read-out: VEGFR-1 kinase % inhibition @ 1 uM

Structure (SMILES)	inhibition at 1 µM [%]
Cc1cc(C)c(C=C2C(=O)NN=C2c2ccsc2)[nH]1 [Compound 37, 4-[(3,5-dimethylpyrrol-2-yl)methylene]-3-(3-thienyl)-2-pyrazolin-5-one]	14

Target: T2, recombinant human baculoviral VEGFR2 cyctoplasmic domain (Homo sapiens, UniProt P35968)
T2 construct: recombinant human baculoviral VEGFR2 cyctoplasmic domain; host or cells: baculovirus expression system
Experiment: VEGFR2 kinase inhibition assay (ELISA-based, time-resolved fluorescence)
Format: biochemical
Conditions: 1 uM compound; 30 μM ATP
Protocol: Inhibition of Vascular Endothelial Growth Factor Receptor-2 Kinase Activity
Assay were performed as described for trkA kinase below. The 96-well microtiter plate (FluoroNUNC Maxisorp) was coated with 40 μg/ml recombinant human phospholipase C-γ1/glutathione S-transferase fusion protein. Inhibition studies were performed in 100 μl assay mixtures containing 50 mM HEPES, pH 7.4, 30 μM ATP, 10 mM MnCl2, 0.1% BSA, 2% DMSO, and 1 μM of test compound. The reaction was initiated by adding prephosphorylated recombinant human baculoviral VEGFR2 cyctoplasmic domain. The reaction was allowed to proceed for 15 minutes at 37° C. The detection antibody, eurpium-labeled anti-phosphotyrosine antibody (Wallac #CR04-100), was added at 1:5000 dilution in block buffer (3% BSA in TBST).

T2 sequence (P35968 786-1356 limits assumed): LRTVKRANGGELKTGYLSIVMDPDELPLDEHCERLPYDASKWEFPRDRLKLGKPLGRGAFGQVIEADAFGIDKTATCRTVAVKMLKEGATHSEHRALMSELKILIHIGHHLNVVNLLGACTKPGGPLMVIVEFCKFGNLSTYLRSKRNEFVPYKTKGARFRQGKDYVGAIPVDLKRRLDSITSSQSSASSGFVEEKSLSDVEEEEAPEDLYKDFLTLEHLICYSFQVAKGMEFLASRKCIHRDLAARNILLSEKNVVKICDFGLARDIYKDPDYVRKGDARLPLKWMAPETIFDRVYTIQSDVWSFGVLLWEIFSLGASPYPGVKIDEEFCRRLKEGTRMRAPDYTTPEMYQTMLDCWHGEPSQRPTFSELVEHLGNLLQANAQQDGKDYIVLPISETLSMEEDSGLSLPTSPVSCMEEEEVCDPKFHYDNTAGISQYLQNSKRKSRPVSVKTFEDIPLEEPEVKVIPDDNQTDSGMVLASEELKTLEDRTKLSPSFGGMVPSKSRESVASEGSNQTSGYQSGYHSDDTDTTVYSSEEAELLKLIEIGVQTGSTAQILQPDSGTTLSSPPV

Structure (SMILES)	VEGFR-2 kinase % inhibition @ 1 uM [%]
O=C1NN=C(c2ccco2)C1=Cc1c[nH]c2ccc(Cl)cc12 [Compound 49]	50
Cc1cccc2c(C=C3C(=O)NN=C3c3ccco3)c[nH]c12 [Compound 47]	64
Cc1nc[nH]c1C=C1C(=O)NN=C1c1ccco1 [Compound 53]	34
O=C1NN=C(c2cc3ccccc3o2)C1=Cc1c[nH]c2ccccc12 [Compound 58]	47
CC(C)Cn1cc(C=C2C(=O)NN=C2c2nccs2)c2ccccc21 [Compound 73]	15
Cc1[nH]c(C=C2C(=O)NN=C2c2ccoc2)c(Br)c1Br [Compound 8]	35
O=C1NN=C(c2ccoc2)C1=Cc1c[nH]c2cccc(OCc3ccccc3)c12 [Compound 18]	12
Cn1cc(C=C2C(=O)NN=C2c2cc3ccccc3o2)c2ccccc21 [Compound 59]	14
O=C1NN=C(c2ccoc2)C1=Cc1cn(Cc2ccccc2)c2ccccc12 [Compound 68]	26
Cn1ccc(C2=NNC(=O)C2=Cc2c[nH]c3cccc(OCc4ccccc4)c23)c1 [Compound 31]	16
O=C1NN=C(c2ccoc2)C1=CC=C(c1ccccc1)c1ccccc1 [Compound 4]	33
Cc1cc(C)c(C=C2C(=O)NN=C2C2c3ccccc3Oc3ccccc32)[nH]1 [Compound 2]	21

Same assay, conditions: 1 uM compound; 30 μM ATP; read-out: VEGFR-2 kinase % inhibition @ 1 uM

Structure (SMILES)	inhibition at 1 µM [%]
Cc1cc(C)c(C=C2C(=O)NN=C2c2ccsc2)[nH]1 [Compound 37, 4-[(3,5-dimethylpyrrol-2-yl)methylene]-3-(3-thienyl)-2-pyrazolin-5-one]	62

Target: T3, baculovirus-expressed human trkA cytoplasmic domain (Homo sapiens, UniProt P04629)
T3 construct: baculovirus-expressed human trkA cytoplasmic domain; host or cells: baculovirus expression system
Experiment: trkA tyrosine kinase inhibition assay (ELISA-based)
Format: biochemical
Conditions: 1 uM compound; 40 μM ATP
Protocol: Inhibition of trkA Tyrosine Kinase Activity
Selected heterocyclic substituted pyrazolones were tested for their ability to inhibit the kinase activity of baculovirus-expressed human trkA cytoplasmic domain using an ELISA-based assay as previously described (Angeles et al., Anal. Biochem. 236: 49-55, 1996). Briefly, a 96-well microtiter plate was coated with substrate solution (recombinant human phospholipase C-γl/glutathione S-transferase fusion protein (Rotin et al., EMBO J., 11: 559-567, 1992). Inhibition studies were performed in 100 μl assay mixtures containing 50 mM Hepes, pH 7.4, 40 μM ATP, 10 mM MnCl2, 0.1% BSA, 2% DMSO, and various concentrations of inhibitor. The reaction was initiated by addition of trkA kinase and allowed to proceed for 15 minutes at 37° C. An antibody to phosphotyrosine (UBI) was then added, followed by a secondary enzyme-conjugated antibody, alkaline phosphatase-labelled goat anti-mouse IgG (Bio-Rad). The activity of the bound enzyme was measured via an amplified detection system (Gibco-BRL). Inhibition data were analyzed using the sigmoidal dose-response (variable slope) equation in GraphPad Prism.

T3 sequence (P04629 440-796 limits assumed): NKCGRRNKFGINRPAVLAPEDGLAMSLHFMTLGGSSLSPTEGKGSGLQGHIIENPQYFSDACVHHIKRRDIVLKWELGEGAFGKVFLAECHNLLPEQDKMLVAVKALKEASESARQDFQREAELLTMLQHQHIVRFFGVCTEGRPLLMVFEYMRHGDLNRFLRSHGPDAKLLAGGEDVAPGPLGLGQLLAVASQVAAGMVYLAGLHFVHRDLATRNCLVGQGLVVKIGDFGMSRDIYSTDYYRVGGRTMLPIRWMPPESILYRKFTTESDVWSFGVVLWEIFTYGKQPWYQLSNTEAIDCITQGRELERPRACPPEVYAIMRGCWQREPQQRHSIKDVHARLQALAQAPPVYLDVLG

Structure (SMILES)	trkA % inhibition @ 1 uM [%]	inhibition at 1 µM [%]
O=C1NN=C(c2ccco2)C1=Cc1c[nH]c2ccc(Cl)cc12 [Compound 49]	56	
Cc1cc(C)c(C=C2C(=O)NN=C2c2ccsc2)[nH]1 [Compound 37, 4-[(3,5-dimethylpyrrol-2-yl)methylene]-3-(3-thienyl)-2-pyrazolin-5-one]		28
Cc1cccc2c(C=C3C(=O)NN=C3c3ccco3)c[nH]c12 [Compound 47]	37	
Cc1nc[nH]c1C=C1C(=O)NN=C1c1ccco1 [Compound 53]	20	
O=C1NN=C(c2cc3ccccc3o2)C1=Cc1c[nH]c2ccccc12 [Compound 58]	30	
CC(C)Cn1cc(C=C2C(=O)NN=C2c2nccs2)c2ccccc21 [Compound 73]	8	
Cc1[nH]c(C=C2C(=O)NN=C2c2ccoc2)c(Br)c1Br [Compound 8]	20	
O=C1NN=C(c2ccoc2)C1=Cc1c[nH]c2cccc(OCc3ccccc3)c12 [Compound 18]	70	
Cn1cc(C=C2C(=O)NN=C2c2cc3ccccc3o2)c2ccccc21 [Compound 59]	40	
O=C1NN=C(c2ccoc2)C1=Cc1cn(Cc2ccccc2)c2ccccc12 [Compound 68]	42	
Cn1ccc(C2=NNC(=O)C2=Cc2c[nH]c3cccc(OCc4ccccc4)c23)c1 [Compound 31]	39	
O=C1NN=C(c2ccoc2)C1=CC=C(c1ccccc1)c1ccccc1 [Compound 4]	53	
Cc1cc(C)c(C=C2C(=O)NN=C2C2c3ccccc3Oc3ccccc32)[nH]1 [Compound 2]	39	

Target: T4, baculoviral GST-MLK3KD (Homo sapiens, UniProt Q16584)
T4 construct: 2 μg/ml of baculoviral GST-MLK3KD; GST (N); host or cells: baculovirus expression system
Experiment: Mixed Lineage Kinase-3 inhibition assay (Millipore Multiscreen plate, 32P)
Format: biochemical
Conditions: 1 uM compound; 100 μM ATP
Protocol: Inhibition of Mixed Lineage Kinase-3 Activity
Assays were performed using the Millipore Multiscreen plate format as described for MLK1. Briefly, each 50-μl assay mixture contained 20 mM Hepes, pH 7, 1 mM EGTA, 10 mM MgCl2, 1 mM DTT, 25 mM β-glycerophosphate, 100 μM ATP, 0.25 μCi [γ-^32P]ATP, 0.1% BSA, 500 μg/ml myelin basic protein (UBI #13-104), 2% DMSO, various concentrations of test compound, and 2 μg/ml of baculoviral GST-MLK3KD. Samples were incubated for 15 min at 37° C. The reaction was stopped by adding ice cold 50% TCA and the proteins were allowed to precipitate for 30 min at 4° C. The plates were then washed with ice cold 25% TCA. Supermix scintillation cocktail was added, and the plates were allowed to equilibrate for 1-2 hours prior to counting.

T4 sequence (Q16584 117-379 limits assumed): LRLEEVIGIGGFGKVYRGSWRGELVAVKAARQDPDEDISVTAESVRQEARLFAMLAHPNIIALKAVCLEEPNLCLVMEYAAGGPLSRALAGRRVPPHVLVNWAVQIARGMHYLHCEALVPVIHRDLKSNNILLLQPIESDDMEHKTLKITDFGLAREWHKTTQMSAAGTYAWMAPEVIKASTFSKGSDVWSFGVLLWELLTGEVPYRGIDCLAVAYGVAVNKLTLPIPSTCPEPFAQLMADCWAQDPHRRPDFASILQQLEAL

Structure (SMILES)	MLK-3 Kinase % inhibition @ 1 uM [%]
O=C1NN=C(c2ccco2)C1=Cc1c[nH]c2ccc(Cl)cc12 [Compound 49]	21
Cc1cccc2c(C=C3C(=O)NN=C3c3ccco3)c[nH]c12 [Compound 47]	31
Cc1nc[nH]c1C=C1C(=O)NN=C1c1ccco1 [Compound 53]	12
O=C1NN=C(c2cc3ccccc3o2)C1=Cc1c[nH]c2ccccc12 [Compound 58]	43
CC(C)Cn1cc(C=C2C(=O)NN=C2c2nccs2)c2ccccc21 [Compound 73]	5
Cc1[nH]c(C=C2C(=O)NN=C2c2ccoc2)c(Br)c1Br [Compound 8]	10
O=C1NN=C(c2ccoc2)C1=Cc1c[nH]c2cccc(OCc3ccccc3)c12 [Compound 18]	47
Cn1cc(C=C2C(=O)NN=C2c2cc3ccccc3o2)c2ccccc21 [Compound 59]	47
O=C1NN=C(c2ccoc2)C1=Cc1cn(Cc2ccccc2)c2ccccc12 [Compound 68]	20
Cn1ccc(C2=NNC(=O)C2=Cc2c[nH]c3cccc(OCc4ccccc4)c23)c1 [Compound 31]	49
O=C1NN=C(c2ccoc2)C1=CC=C(c1ccccc1)c1ccccc1 [Compound 4]	−6
Cc1cc(C)c(C=C2C(=O)NN=C2C2c3ccccc3Oc3ccccc32)[nH]1 [Compound 2]	−11

Same assay, conditions: 1 uM compound; 100 μM ATP; read-out: MLK-3 Kinase % inhibition @ 1 uM

Structure (SMILES)	inhibition at 1 µM [%]
Cc1cc(C)c(C=C2C(=O)NN=C2c2ccsc2)[nH]1 [Compound 37, 4-[(3,5-dimethylpyrrol-2-yl)methylene]-3-(3-thienyl)-2-pyrazolin-5-one]	79
